Laboratory results published in patent US7297551B2, “Recombinant proteins and peptides for endotoxin biosensors, endotoxin removal, and anti-microbial and anti-endotoxin therapeutics” (priority 1998, dated 2007).
Marks after values point to notes of the source that are not given here. Ends that are not written are not given here. Peptide text beside a SMILES is read from it.

B1: rFCEE: truncated recombinant Factor C from pHILD2/CrFC21EE, amino acids 1-766, 90 kDa, with endotoxin-binding domain (protein, listed as Carcinoscorpius rotundicauda)
chain: MVLASFLVSGLVLGLLAQKMRPVQSKGVDLGLCDETRFECKCGDPGYVFNIPVKQCTYFYRWRPYCKPCDDLEAKDICPKYKRCQECKAGLDSCVTCPPNKYGTWCSGECQCKNGGICDQRTGACACRDRYEGVHCEILKGCPLLPSDSQVQEVRNPPDNPQTIDYSCSPGFKLKGMARISCLPNGQWSNFPPKCIRECAMVSSPEHGKVNALSGDMIEGATLRFSCDSPYYLIGQETLTCQGNGQWNGQIPQCKNLVFCPDLDPVNHAEHKVKIGVEQKYGQFPQGTEVTYTCSGNYFLMGFDTLKCNPDGSWSGSQPSCVKVADREVDCDSKAVDFLDDVGEPVRIHCPAGCSLTAGTVWGTAIYHELSSVCRAAIHAGKLPNSGGAVHVVNNGPYSDFLGSDLNGIKSEELKSLARSFRFDYVRSSTAGKSGCPDGWFEVDENCVYVTSKQRAWERAQGVCTNMAARLAVLDKDVIPNSLTETLRGKGLTTTWIGLHRLDAEKPFIWELMDRSNVVLNDNLTFWASGEPGNETNCVYMDIQDQLQSVWKTKSCFQPSSFACMMDLSDRNKAKCDDPGSLENGHATLHGQSIDGFYAGSSIRYSCEVLHYLSGTETVTCTTNGTWSAPKPRCIKVITCQNPPVPSYGSVEIKPPSRTNSISRVGSPFLRLPRLPLPLARAAKPPPKPRSSQPSTVDLASKVKLPEGHYRVGSRAIYTCESRYYELLGSQGRRCDSNGNWSGRPASCIPVCGRSDSPRSPFIWNG

Experiments:
[1] = Protection of galactosamine-sensitized mice from LPS-induced lethality; type: in vivo, C57BL/6J mice; details: 75 μg peptide, 2 ng LPS pre-incubated with peptide 30 minutes
Method: The anti-endotoxin potency of SSCrFCES was investigated in C57BL/6J mice. Mice are typically resistant to endotoxin. However, the sensitivity of mice to endotoxin can be enhanced >1,000-fold by co-injection with a liver-specific inhibitor, galactosamine (31). […] […] Lethality was observed over 3 days after injection. Statistical analysis were performed using the Kaplan-Meier test (32) and log rank pairwise test.

[2] = test system: P. aeruginosa; assay: Microbicidal concentration (MBC) assay; type: cell-based, Pseudomonas aeruginosa; details: MBC
Method: Test strains cultured on Mueller-Hinton agar (MHA, Becton Dickinson, USA) were inoculated into 10 ml Mueller-Hinton broth (MHB, Becton Dickinson, USA) and grown overnight at 37° C. in a shaker incubator (Model 4536, Forma Scientific, Inc., USA) at 230 rpm. Overnight broth cultures were diluted to give a final cell density of 10^5 colony forming units/ml (cfu/ml). One hundred microliters of the bacterial suspension was dispensed into sterile polypropylene 8-strip PCR-tubes (Quality Scientific Plastics, USA). Eleven microliters of serially diluted sushi peptides, ranging in final concentrations of 0.03-4 μg/ml, were then added. The peptides were constituted at 10 times the required test concentrations in 0.01% acetic acid and 0.2% bovine serum albumin (BSA). Positive controls were cultures without test peptides. Uninoculated MHB was used as negative control. All tests were carried out in triplicate.
Cultures were incubated at 37° C. for 18-24 h, with the PCR-tubes held in horizontal position and shaken at 230 rpm. Cell counts were determined by standard drop-count method. The killing efficiency for the four sushi peptides were calculated based on standard drop-count method.

[3] = test system: P. aeruginosa ATCC 27853; assay: Killing rate assay; type: cell-based, Pseudomonas aeruginosa; details: peptides at 0.06 μg/ml, initial 10^9 cfu/ml
Source text: The killing rate assay was adapted from the MBC test above, with different contact time of peptides with the bacteria arrested at regular intervals and plated for colony count. An initial density of 10^9 cfu/ml was used. […] This is one of the important features of an effective therapeutic agent.

[4] = test system: Human erythrocytes; assay: Hemolysis assay, human erythrocytes; type: cell-based; details: 100 μg/ml
Method: Human and rabbit erythrocytes were both used to test the hemolytic activities of the peptides. Whole blood was collected in heparinized sterile syringe, transferred to sterile borosilicate tube and centrifuged at 1200 g for 5 minutes at 4° C. The supernatant including the leukocytes above the erythrocyte pellet was discarded. The erythrocytes were washed 3 times using three volumes of prechilled pyrogen-free saline (PFS). An erythrocyte suspension at 0.4% was prepared for the hemolysis assay. Serial two-fold dilutions of the peptides was prepared in PFS and 100 μl aliquots were added to equal volumes of 0.4% erythrocyte solution in a 96-well microtiter plate (Nunclon™ Δ surface, Nunc) to give final peptide concentrations ranging from 6 to 100 μg/ml. The mixtures were incubated at 37° C. for 1 h. The intact erythrocytes were then pelleted by centrifuging at 1000 g for 5 min. One hundred μl of the supernatant was transferred to a new 96-well microtiter plate and the amount of hemoglobin released into the supernatant was determined by reading the absorbance at 414 nm using a SPECTRAmax™ 340 plate reader with SOFTmax PRO™ version 1.2.0. A positive control with 100 μl of 0.4% erythrocyte lysed in 1% Triton-X 100 was taken as 100% lysis. The negative control was the erythrocytes in PFS alone, which gave minimal lysis. This was taken as 0%.

[5] = test system: THP-1 monocytes
Method: Two×10^4 THP-1 monocytes in 50 μl of RPMI 1640 were mixed in a microtitre plate with 50 μl of increasing amount of 2-fold serial dilutions of SSCrFCES (0.004-4.0 mg/ml in PBS) and incubated for 60 min at 37° C. To determine cytotoxicity induced by the SSCrFCES, 20 μl of CellTiter96™ AQueous One Solution Reagent (Promega) was added into each well for 90 min at 37° C. [3-(4,5-dimethylthiazol-2-yl)-5-(3-carboxymethoxyphenyl)-2-(4-sulfophenyl)-2H-tetrazolium (MTS) is bioreduced by metabolically active cells into a colored formazan product that is soluble in tissue culture medium (27, 28). For detection, the absorbance was measured at 490 nm. To determine the ratio of cell lysis induced by SSCrFCES, two controls were used. Complete lysis (100%) was achieved by incubating cells in phosphate buffer saline containing 0.2% Tween-20 instead of medium only. This absorbance value corresponded to the background, as those cells could not metabolize MTS. The second control representing 0% lysis was determined by incubating cells in medium only. […] The experiment was done in triplicate.

[6] = test system: Escherichia coli; details: time-kill kinetics tested on Escherichia coli; cited from earlier work
[7] = test system: the various bacteria used; assay: Bacteriostatic activity in in vitro cultures, the various bacteria used; type: cell-based; details: crude full-length rFC; Sephadex G-100 enriched truncates
Method: (§1) The bacteria used for the assay were Escherichia coli ATCC#25922, Salmonella typhimurium ATCC#14028, Pseudomonas aeruginosa ATCC#27853, Klebsiella pneumoniae ATCC#13883 and […]. A colony of each Gram-negative bacterium was inoculated into nutrient broth (Gibco, BRL) and grown at 37° C. until it reached the logarithmic phase of growth. The culture was diluted with nutrient broth to give 1-5×10^5 cells/ml. Aliquots of 2 ml culture were incubated with 1 mg rFC/ml of culture. Incubation was carried out at 37° C. At time intervals of 0, 2, 4, 6, and 24 h, the bacterial culture was vortexed to break up any agglutinated clumps. After vortexing, each culture was examined under the microscope to ensure homogeneity of bacteria. The culture was serially diluted with 0.85% saline, plated on nutrient agar (Oxoid) and incubated overnight at 37° C. for colony counting.

[8] = Modified Western blot LPS-binding assay of rFC; set-up: species or system E. coli; details: 300 μg protein per LPS/lipid A strip
Method: LPS from E. coli 055:B5 (Sigma) was reconstituted to 2 μg/μl, and diphosphoryl lipid A from E. coli K12, D31m4 LPS (List Biologicals, Inc., USA) was made up to 1 μg/μl. The LPS-binding assay was based on modifications of earlier described protocols (45,61). Briefly, 10 μg aliquots of LPS/lipid A were electrophoresed on a denaturing 15% SDS-polyacrylamide gel and electroblotted onto Immobilon™ PVDF membrane. The membrane was cut into strips and each LPS/lipid A strip was subsequently incubated with 300 μg of proteins containing rFC. Detection of rFC binding to lipid A was accomplished by incubation with anti-Factor C antibody followed by alkaline phosphatase-conjugated secondary goat anti-rabbit antibody (Dako) and BCIP/NBT colorimetric substrate (Moss, Inc., USA).

[9] = test system: Escherichia coli ATCC#25922; assay: Bacteriostatic activity in in vitro culture, E. coli; type: cell-based; details: within 2 h of incubation
Method: as §1

[10] = Competition between rFC and CAL Factor C for LPS (fluorimetric assay); type: biochemical; details: Biomax-50 enriched, 100 μg
Method: Carcinoscorpius amoebocyte lysate (CAL) containing native Factor C was used in an assay in which rFC competed with CAL Factor C for LPS. Because the rFC produced in P. pastoris lacks serine protease activity, the competition can be monitored by measuring the reduced enzymatic activity of CAL in a fluorimetric assay. Mixtures of 100 μl each of increasing concentrations of LPS or rFC, in fluorimetric assay buffer (50 mM Tris HCl pH 8, containing 0.1 M NaCl and 0.01 M CaCl2) were incubated at 37° C. for 1 h. Aliquots of 20 μg CAL were added to each mixture and the total volumes were made up to 2 ml with fluorimetric assay buffer. The reaction was continued at 37° C. for 1 h and the fluorimetric assay protocol (64) was followed. This involved the addition of 15 μl of 2 mM fluorimetric substrate N-t-Boc-Val-Pro-Arg-7-amido-4-methylcoumarin (Sigma) and incubation at 37° C. for 30 min. The reaction was terminated by the addition of 0.1 ml of glacial acetic acid (Merck). The product, amino methylcoumarin, was measured in fluorescence units (FU) on a Luminescence Spectrometer LS-5 (Perkin-Elmer) with excitation light at 380 nm and emission at 460 nm.
The percentage competition by rFC of the native Factor C enzyme activity of CAL was calculated based on comparison of enzyme activity with the negative control of pHILD2/151. […]
[formula] where FU represents fluorescence units.

Molecule | Haemolytic Activity at 100 μg/ml peptide (hu RBC) % lysis [4] | Cytotoxicity (Cell lysis) BC50 [5] | further results
CC[C@H](C)[C@H](NC(=O)[C@H](CCCNC(=N)N)NC(=O)[C@H](C)NC(=O)[C@H](CCSC)NC(=O)CNC(=O)[C@H](CCCCN)NC(=O)[C@H](CC(C)C)NC(=O)[C@H](CCCCN)NC(=O)[C@H](Cc1ccccc1)NC(=O)CN)C(=O)N[C@@H](CO)C(=O)N[C@@H](CS)C(=O)N[C@@H](CC(C)C)C(=O)N1CCC[C@H]1C(=O)N[C@@H](CC(N)=O)C(=O)NCC(=O)N[C@@H](CCC(N)=O)C(=O)N[C@@H](Cc1c[nH]c2ccccc12)C(=O)N[C@@H](CO)C(=O)N[C@@H](CC(N)=O)C(=O)N[C@@H](Cc1ccccc1)C(=O)N1CCC[C@H]1C(=O)N1CCC[C@H]1C(=O)N[C@@H](CCCCN)C(=O)N[C@@H](CS)C(=O)N[C@H](C(=O)N[C@@H](CCCNC(=N)N)C(=O)N[C@@H](CCC(=O)O)C(=O)N[C@@H](CS)C(=O)N[C@@H](C)C(=O)N[C@@H](CCSC)C(=O)N[C@H](C(=O)N[C@@H](CO)C(=O)N[C@@H](CO)C(=O)O)C(C)C)[C@@H](C)CC [S1] (H-GFKLKGMARISCLPNGQWSNFPPKCIRECAMVSS-OH; N-terminus and C-terminus assumed) |  |  | Mouse Protection Assay [1]: 22% at 75; Anti-microbial Potency P. aeruginosa MBC90 [2]: 0.03 µg/mL; Killing rate (time to achieve MBC90) [3]: 7 min
GVSTTVLNIYRGIINLLQLNVKK [S8-vg3] | 100% | 22 µM | 
HAEHKVKIGVEQKYGQFPQGTEVTYTCSGNYFLM [S3] | 5% |  | 
HKVKKIVKQLYRAEHKVKKIVKQL [S5] | 0% | 33 µM | 
IYRGIINLIQLAVKKAQNVYQM [S9-vg4] | 75% | 35 µM | 
LLNAVPHKATHAALKFLKEK [S7-vg2] | 5% | 400 µM | 
MRKLVLALAKALAKVDKKNL [S6-vg1] | 5% | 26 µM | 
Magainin II |  |  | Killing rate [6]: 60^d min
Nisin |  |  | Killing rate [6]: 60^d min
RAEHKVKKIVKQLYGQFRQLTRVTRTCSRFLRRM [S4] | 20% | 3.8 µM | 
Ranalexin |  |  | Killing rate [6]: >60^d min
B1 |  |  | inhibitory effect on growth of the various bacteria [7]: did not have any inhibitory effect; binding to 7-20 kDa lipid A bands [8]: able to bind specifically to lipid A moiety of LPS, albeit less strongly; agglutination of E. coli [9]: Agglutination; effect on the enzymatic activity of CAL Factor C [10]: markedly lower competitive effect
